# Data published in patent US20240327364A1, “THERAPEUTIC TARGETING OF GPR68 TO INDUCE FERROPTOSIS” (University Of Maryland, Baltimore, priority 2023, published 2024).
# Read-outs that look alike come from different tables or passages of the source.
# Key:
# [1] = molecular target: T1, GPR68/OGR1 (Homo sapiens, UniProt Q15743); assay: CHEM1-OGR1 cells Fluo-8 calcium assay, acidified media pH 6.4; type: cell-based
# T1 construct: host or cells: Chem-1 (CHEM1-OGR1) cells
# Method: Briefly, the methods were: On the day before the assay 20,000 cells per well of CHEM1-OGR1 cells were plated in 10% DMEM containing 10% FBS and 1% Pen/Strep into a 96 well plate. After 24 hours media was removed and cells were stained with 80 μL Fluo-8 calcium indicator dye according to manufacturer's protocol. After staining cells were treated with 20 uL of 4× concentration of test compounds. Using kinetic imaging in the Lionheart HCS fluorescence intensity was continuously measure at 10 frames per second, for 5 seconds before 100 μL of acidified media was added to the well resulting in a pH of 6.4. A ratio of fluorescence intensities prior to addition and at peak were calculated and averaged. The resulting data were platted and using a 4 parameter logistic regression EC50 (the concentration causing 50% effective inhibition) for each test compound was determined.
# [2] = test system: LPS-induced ALI; assay: LPS-induced acute lung injury; type: in vivo, mice
# Description: PMN (polymorphonuclear neutrophils).
# [3] = concentration causing 50% effective inhibition of calcium response to pH 6.4, read-out: EC50
# T1 sequence (Q15743 whole entry): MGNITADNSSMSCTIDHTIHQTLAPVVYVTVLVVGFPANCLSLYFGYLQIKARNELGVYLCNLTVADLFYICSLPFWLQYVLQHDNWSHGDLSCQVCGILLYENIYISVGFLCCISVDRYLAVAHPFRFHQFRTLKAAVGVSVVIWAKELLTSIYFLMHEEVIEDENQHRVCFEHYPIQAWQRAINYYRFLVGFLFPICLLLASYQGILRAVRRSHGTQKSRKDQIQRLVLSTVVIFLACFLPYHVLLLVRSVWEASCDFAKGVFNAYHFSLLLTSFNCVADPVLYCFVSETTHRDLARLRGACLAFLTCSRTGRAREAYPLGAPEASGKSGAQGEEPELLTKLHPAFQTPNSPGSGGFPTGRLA
Structure (SMILES),"EC50 [1, 3] [nM]",other results
COc1ccc2c(c1)C1(NN=C(c3ccc(C(F)(F)F)nc3)S1)C(=O)N2 (centres unmarked) [OGM75],1590,–
O=C1Nc2ccc(Cl)cc2C12NN=C(c1ccc(Cl)cc1)S2 (centres unmarked) [OGM19],2320,–
COc1ccc(C2=NNC3(S2)C(=O)Nc2ccc(OC)cc23)cc1 (centres unmarked) [OGM17],262,"inflammatory cell infiltrates in BAL ([2]; LPS 0.7 mg/kg intratracheally, compounds intraperitoneally): reduced inflammatory cell infiltrates in BAL; reversal of markers of ALI, comparison with OGM2 ([2]; mouse, in vivo): much more potent in reversing the markers of ALI due to LPS in vivo"
CN1C(=O)C2(NN=C(c3cccc4ccccc34)S2)c2ccccc21 (centres unmarked) [OGM6],–,"EC50 ([1]; Table 5, read-out: GPR68): 1500 nM"
O=C1Nc2ccc(Cl)cc2C12NN=C(c1cccc3ccccc13)S2 (centres unmarked) [OGM23],500,–
COc1ccc2cc(C3=NNC4(S3)C(=O)N(CC=C(C)C)c3ccccc34)ccc2c1 (centres unmarked) [OGM34],> 10000,–
COc1ccc2c(c1)NC(=O)C21NN=C(c2ccncc2)S1 (centres unmarked) [OGM59],832,–
COc1ccc2cc(C3=NNC4(S3)C(=O)Nc3ccc(F)cc34)ccc2c1 (centres unmarked) [OGM26],655,–
COc1ccc2c(c1)NC(=O)C21NN=C(c2ccc3ncccc3c2)S1 (centres unmarked) [OGM39],1170,–
COc1ccc2cc(C3=NNC4(S3)C(=O)Nc3ccc(Cl)cc34)ccc2c1 (centres unmarked) [OGM24],90,–
COc1ccc2c(c1)C1(NN=C(c3ccnc(OC)c3)S1)C(=O)N2 (centres unmarked) [OGM63],3520,–
COc1ccc(C2=NNC3(S2)C(=O)N(CC=C(C)C)c2ccc(Cl)cc23)cc1 (centres unmarked) [OGM29],> 10000,–
O=C(O)c1ccc2c(c1)C1(NN=C(c3cccnc3)S1)C(=O)N2 (centres unmarked) [OGM61],2190,–
O=C1Nc2ccc(F)cc2C12NN=C(c1ccc(C(F)(F)F)nc1)S2 (centres unmarked) [OGM76],5760,–
CCc1ccc2c(c1)C1(NN=C(c3ccc(OC)cc3)S1)C(=O)N2 (centres unmarked) [OGM28],> 10000,–
COc1ccc(C2=NNC3(S2)C(=O)Nc2ccc(F)cc23)cc1 (centres unmarked) [OGM12],756,–
COc1ccc(C2=NNC3(S2)C(=O)Nc2ccccc23)cc1 (centres unmarked) [OGM10],1440,–
O=C1Nc2ccccc2C12NN=C(c1ccccc1)S2 (centres unmarked) [OGM8],2740,–
O=C1Nc2ccc(F)cc2C12NN=C(c1ccc(Br)cc1)S2 (centres unmarked) [OGM74],296,–
CCc1ccc2c(c1)C1(NN=C(c3ccc(C(F)(F)F)nc3)S1)C(=O)N2 (centres unmarked) [OGM71],10500,–
COc1ccc2cc(C3=NNC4(S3)C(=O)N(CC=C(C)C)c3ccc(Cl)cc34)ccc2c1 (centres unmarked) [OGM35],> 10000,–
CCc1ccc2c(c1)C1(NN=C(c3cccnc3)S1)C(=O)N2 (centres unmarked) [OGM48],> 10000,–
NS(=O)(=O)c1ccc2c(c1)C1(NN=C(c3ccccc3)S1)C(=O)N2 (centres unmarked) [OGM52],3730,–
COc1ccc(C2=NNC3(S2)C(=O)Nc2ccc(Cl)cc23)cc1 (centres unmarked) [OGM11],4390,–
O=C1Nc2ccc(F)cc2C12NN=C(c1ccc(Cl)cc1)S2 (centres unmarked) [OGM14],1830,–
COC(=O)c1ccc2c(c1)C1(NN=C(c3ccc4ncccc4c3)S1)C(=O)N2 (centres unmarked) [OGM37],3690,–
O=C1Nc2ccccc2C12NN=C(c1ccc(F)cc1)S2 (centres unmarked) [OGM20],4000,–
"CCc1ccc2c(c1)C1(NN=C(c3ccnc(OC)c3)S1)C(=O)N2 (centres unmarked) [OGM49, 5-ethyl-5′-(2-methoxypyridin-4-yl)-1,2-dihydro-3′H-spiro[indole-3,2′-[1,3,4]thiadiazol]-2-one: 2,2,2-trifluoroacetic acid]",1420,–
COc1ccc2c(c1)C1(NN=C(c3ccc(Br)cc3)S1)C(=O)N2 (centres unmarked) [OGM73],> 10000,–
O=C(O)c1ccc2c(c1)C1(NN=C(c3ccc4ncccc4c3)S1)C(=O)N2 (centres unmarked) [OGM54],4770,–
